Like-named read-outs stand apart in the source and are kept apart here.
Legend:
Format in all cases: cell-based
[1] = tested on: PMN's (polymorphonuclear leukocytes); experiment: Neutrophil oxidative burst assay; conditions: Leukocyte, 40 min, read-out: Neutrophil oxidative burst Rel EC50 range
Experimental: PMN's (polymorphonuclear leukocytes) were isolated and purified from fresh buffy coats by sequential sedimentation, density centrifugation and lysis of contaminating erythrocytes. Buffy coats were incubated with 2% methocel for 30-45 min to differentially sediment red blood cells. The leukocyte-rich supernatant was transferred to lymphoprep tubes to remove mononuclear cells by density centrifugation (400×g, 30 min). The pellet was resuspended and any remaining erythrocytes lysed using 0.2% NaCl for 30 sec before restoring isotonicity by the addition of 1.2% NaCl. This step was repeated until the cell pellet appears relatively free of red blood cells. Cells were resuspended in DPBS (Dulbecco's Phosphate Buffered Saline) (w.o. Ca^2+, Mg^2+) and the concentration adjusted to 1.4×10^6 cells/ml in HBSS (Hanks Balanced Salt solution) (w Ca^2+, Mg^2+) containing 0.1% BSA (Bovine Serum Albumin) and 5 mM glucose just prior to assay initiation. Titrated reference and test compounds were pre-mixed with HE (Hydroethidine) (10 μM final assay concentration) before addition to 96-well plates containing 2.5×10^5 cells. Following 40 min incubation at RT, changes in the respiratory burst was estimated by measuring fluorescence at 579 nm (excitation: 485 nm) using an Envision plate reader.
Test compound titration curves were fitted to a four-parameter sigmoidal curve after normalizing the effect of the test compound to the effect of the positive control (5×10^−7 M PEP0005). Rel EC50 denotes the concentration of test compound producing an effect that is midway between the fitted top and bottom. Abs EC50 is the concentration of test compound that provokes a response corresponding to 50% of the maximal effect associated with the positive control (5×10^−7 M PEP0005).

[2] = tested on: Primary human epidermal keratinocytes, HeKa; experiment: HeKa cytokine release (IL-8) assay
Experimental: Primary human epidermal keratinocytes, HeKa, were seeded (10.000 cells/well) in 96-well plates the day before the assay. Test compounds were diluted in DMSO (dimethyl sulfoxide) and further diluted in assay medium and pipetted into wells of 96 well-plates containing HeKa cells. The plates were incubated for 6 h at 37° C. in humidified air with 5% CO2. Plates are centrifuged briefly to spin down cells at 4° C., the supernatant was removed and analysed by Meso Scale Discovery (MSD) 4-spot cytokine assay (Pro-inflammatory II Ultra Sensitive kit, MSD, MD, USA). The MSD assay employs a sandwich immunoassay format where capture antibodies were coated in a patterned array on the bottom of the wells of a 4-Spot-Multi-MSD plate. Standard samples were incubated in the MULTI-SPOT plates as well, and the cytokine (IL-8) binds to its corresponding capture antibody spot. The cytokine level was quantitated on a SECTOR™ Imager using a cytokine-specific Detection Antibody labelled with MSD SULFO-TAG™ reagent.
Test compound titration curves were fitted to a four-parameter sigmoidal curve after normalizing the effect of the test compound to the effect of the positive control (1.5×10^−7 M PEP0005). Rel EC50 denotes the concentration of test compound producing an effect that is midway between the fitted top and bottom.

[3] = tested on: HeLa cells (ATCC CCL-002); experiment: Necrosis assay; conditions: Homo sapiens, 0.5 h, read-out: HeLa necrosis EC50 range
Experimental: HeLa cells (ATCC CCL-002) were grown in minimal essential medium (Invitrogen catalog no. 42360) containing 10% fetal bovine serum, 100 IU/ml penicillin and 100 μg/ml streptomycin. 4,000-6,000 cells were seeded into 96-well black ViewPlates-plates, clear bottom, (Perkin Elmer) in 100 μl medium and incubated overnight. Compounds were dissolved and pre-diluted in DMSO in 96-well polypropylene plates (Greiner) in a concentration range of 15 μM to 600 μM. At the time of the experiment cell plates were placed on heating blocks at 37° C., medium was removed and 40 μl fresh, pre-warmed medium was added per well. Cells were incubated for 15 min before addition of compounds. In parallel, 3 μl of compounds were diluted with 197 μl growth medium on a Tecan freedom-EVO pipetting station using 250 μl/s pipetting speed, in order to ensure effective mixing of the highly concentrated compound solutions with the aqueous phase. These pre-dilution plates were then equilibrated on heating blocks at 37° C. for 10 min. 80 μl pre-diluted compound were transferred manually to the corresponding wells containing HeLa cells yielding compound concentrations of 10 μM to 400 μM. Control conditions were 1% DMSO in growth medium (100% viability) and 400 μM ingenol mebutate in growth medium (0% viability). Plates were incubated on the heating blocks at 37° C. for 30 min. At the end of the incubation 10 μl PrestoBlue reagent (Invitrogen) were added to each well, plates were sealed with black seal, followed by incubation at 37° C. for 10 min with gentle shaking (150 rpm). Subsequently, plates were placed at room temperature for 20-30 min. Plates were read immediately after on an Envision Fluorescence reader (Perkin Elmer) with excitation at 535 nm and emission at 630 nm. Test compound titration curves were fitted to a four-parameter sigmoidal curve after normalizing the effect of the test compound to the effect of the positive control (4 10^−4 M PEP0005/ingenol mebutate). AbsEC50 denotes the concentration of test compound producing 50% effect.

[4] = 6 h, read-out: HeKa cytokine release (IL-8) Rel EC50 range

Row | Structure (SMILES) | EC50 [1] [nM] | EC50 [2, 4] [nM] | EC50 [3] [nM] | EC50 ([1]; 40 min incubation at RT, normalized to positive control 5×10^−7 M PEP0005) [nM] | EC50 ([2]; 6 h at 37° C., normalized to positive control 1.5×10^−7 M PEP0005, read-out: HeKa cytokine release (IL-8) Rel EC50 range) [nM] | EC50 ([3]; 30 min at 37° C., PrestoBlue, normalized to 4 10^−4 M PEP0005/ingenol mebutate) [nM]
1 | COc1ccccc1C(=O)O[C@H]1C(C)=C[C@]23C(=O)[C@@H](C=C(CO)[C@@H](O)[C@]12O)[C@H]1[C@@H](C[C@H]3C)C1(C)C [Compound 312, Ingenol 3-(2-methoxy-benzoate)] | < 20 | 20 to 100 | < 150000 | – | – | –
2 | COc1ccc(C(=O)O[C@H]2C(C)=C[C@]34C(=O)[C@@H](C=C(CO)[C@@H](O)[C@]23O)[C@H]2[C@@H](C[C@H]4C)C2(C)C)cc1 [Compound 313, Ingenol 3-(4-methoxy-benzoate)] | < 20 | < 20 | < 150000 | – | – | –
3 | CC1=C[C@]23C(=O)[C@@H](C=C(CO)[C@@H](O)[C@]2(O)[C@H]1OC(=O)c1ccc(F)cc1F)[C@H]1[C@@H](C[C@H]3C)C1(C)C [Compound 314, Ingenol 3-(2,4-difluoro-benzoate)] | < 20 | < 20 | < 150000 | – | – | –
4 | CC1=C[C@]23C(=O)[C@@H](C=C(CO)[C@@H](O)[C@]2(O)[C@H]1OC(=O)c1c(C)cccc1C)[C@H]1[C@@H](C[C@H]3C)C1(C)C [Compound 315, Ingenol 3-(2,6-dimethyl-benzoate)] | < 20 | 20 to 100 | < 150000 | – | – | –
5 | COc1cccc(OC)c1C(=O)O[C@H]1C(C)=C[C@]23C(=O)[C@@H](C=C(CO)[C@@H](O)[C@]12O)[C@H]1[C@@H](C[C@H]3C)C1(C)C [Compound 316, Ingenol 3-(2,6-dimethoxy-benzoate)] | 20 to 100 | 20 to 100 | 150000 to 350000 | – | – | –
6 | CC1=C[C@]23C(=O)[C@@H](C=C(CO)[C@@H](O)[C@]2(O)[C@H]1OC(=O)c1cccc2ccccc12)[C@H]1[C@@H](C[C@H]3C)C1(C)C [Compound 319, Ingenol 3-(naphthalene-1-carboxylate)] | < 20 | < 20 | < 150000 | – | – | –
7 | CC1=C[C@]23C(=O)[C@@H](C=C(CO)[C@@H](O)[C@]2(O)[C@H]1OC(=O)c1ccccc1-c1ccccc1)[C@H]1[C@@H](C[C@H]3C)C1(C)C [Compound 320, Ingenol 3-(2-phenyl-benzoate)] | < 20 | < 20 | < 150000 | – | – | –
8 | CC1=C[C@]23C(=O)[C@@H](C=C(CO)[C@@H](O)[C@]2(O)[C@H]1OC(=O)c1ccccc1Br)[C@H]1[C@@H](C[C@H]3C)C1(C)C [Compound 321, Ingenol 3-(2-bromo-benzoate)] | < 20 | < 20 | < 150000 | – | – | –
9 | CC1=C[C@]23C(=O)[C@@H](C=C(CO)[C@@H](O)[C@]2(O)[C@H]1OC(=O)c1ccccc1Oc1ccccc1)[C@H]1[C@@H](C[C@H]3C)C1(C)C [Compound 322, Ingenol 3-(2-phenoxy-benzoate)] | < 20 | < 20 | < 150000 | – | – | –
10 | CC1=C[C@]23C(=O)[C@@H](C=C(CO)[C@@H](O)[C@]2(O)[C@H]1OC(=O)c1ccccc1C(C)C)[C@H]1[C@@H](C[C@H]3C)C1(C)C [Compound 323, Ingenol 3-(2-isopropyl-benzoate)] | < 20 | < 20 | < 150000 | – | – | –
11 | CC1=C[C@]23C(=O)[C@@H](C=C(CO)[C@@H](O)[C@]2(O)[C@H]1OC(=O)c1ccccc1OC(C)C)[C@H]1[C@@H](C[C@H]3C)C1(C)C [Compound 324, Ingenol 3-(2-isopropoxy-benzoate)] | < 20 | < 20 | < 150000 | – | – | –
12 | CC1=C[C@]23C(=O)[C@@H](C=C(CO)[C@@H](O)[C@]2(O)[C@H]1OC(=O)c1c(C)cc(C)cc1C)[C@H]1[C@@H](C[C@H]3C)C1(C)C [Compound 325, Ingenol 3-(2,4,6-trimethyl-benzoate)] | < 20 | < 20 | < 150000 | – | – | –
13 | CC1=C[C@]23C(=O)[C@@H](C=C(CO)[C@@H](O)[C@]2(O)[C@H]1OC(=O)c1ccccc1N)[C@H]1[C@@H](C[C@H]3C)C1(C)C [Compound 330, Ingenol 3-(2-amino-benzoate)] | – | – | – | < 20 | < 20 | 150000 to 350000
14 | CC1=C[C@]23C(=O)[C@@H](C=C(CO)[C@@H](O)[C@]2(O)[C@H]1OC(=O)c1ccccc1NCc1ccccc1)[C@H]1[C@@H](C[C@H]3C)C1(C)C [Compound 331, Ingenol 3-(2-benzylamino-benzoate)] | < 20 | < 20 | < 150000 | – | – | –
15 | CC1=C[C@]23C(=O)[C@@H](C=C(CO)[C@@H](O)[C@]2(O)[C@H]1OC(=O)c1c(C)cccc1NCc1ccccc1)[C@H]1[C@@H](C[C@H]3C)C1(C)C [Compound 332, Ingenol 3-(2-benzylamino-6-methyl-benzoate)] | 20 to 100 | < 20 | < 150000 | – | – | –
16 | COc1cccc(NCc2ccccc2)c1C(=O)O[C@H]1C(C)=C[C@]23C(=O)[C@@H](C=C(CO)[C@@H](O)[C@]12O)[C@H]1[C@@H](C[C@H]3C)C1(C)C [Compound 333, Ingenol 3-(2-benzylamino-6-methoxy-benzoate)] | 20 to 100 | < 20 | < 150000 | – | – | –
17 | CC1=C[C@]23C(=O)[C@@H](C=C(CO)[C@@H](O)[C@]2(O)[C@H]1OC(=O)c1c(C)cccc1N)[C@H]1[C@@H](C[C@H]3C)C1(C)C [Compound 335, Ingenol 3-(2-amino-6-methyl-benzoate)] | < 20 | < 20 | < 150000 | – | – | –
18 | CC1=C[C@]23C(=O)[C@@H](C=C(CO)[C@@H](O)[C@]2(O)[C@H]1OC(=O)c1ccccc1Nc1ccccc1)[C@H]1[C@@H](C[C@H]3C)C1(C)C [Compound 336, Ingenol 3-(2-phenylamino-benzoate)] | < 20 | < 20 | < 150000 | – | – | –
19 | CNc1cccc(C)c1C(=O)O[C@H]1C(C)=C[C@]23C(=O)[C@@H](C=C(CO)[C@@H](O)[C@]12O)[C@H]1[C@@H](C[C@H]3C)C1(C)C [Compound 339, Ingenol 3-(2-methyl-6-methylamino-benzoate)] | 20 to 100 | < 20 | < 150000 | – | – | –
20 | CC1=C[C@]23C(=O)[C@@H](C=C(CO)[C@@H](O)[C@]2(O)[C@H]1OC(=O)c1c(N)cccc1Cl)[C@H]1[C@@H](C[C@H]3C)C1(C)C [Compound 340, Ingenol 3-(2-amino-6-chloro-benzoate)] | < 20 | 20 to 100 | < 150000 | – | – | –

Source: US9656945B2, “3-acyl-ingenols II” (LEO LABORATORIES LIMITED, priority 2010, dated 2017)
